Values quoted from earlier work as cited in US10487314B2, “Inhibition of serotonin expression in gut enteroendocrine cells results in conversion to insulin-positive cells” (priority 2014, dated 2019).

Key:
5-HT2B = 5-HT2B (Homo sapiens, UniProt P41595)
ALDH1A3 mRNA = conditions: human prostate

Chain of 5-HT2B (P41595 whole entry, species assumed): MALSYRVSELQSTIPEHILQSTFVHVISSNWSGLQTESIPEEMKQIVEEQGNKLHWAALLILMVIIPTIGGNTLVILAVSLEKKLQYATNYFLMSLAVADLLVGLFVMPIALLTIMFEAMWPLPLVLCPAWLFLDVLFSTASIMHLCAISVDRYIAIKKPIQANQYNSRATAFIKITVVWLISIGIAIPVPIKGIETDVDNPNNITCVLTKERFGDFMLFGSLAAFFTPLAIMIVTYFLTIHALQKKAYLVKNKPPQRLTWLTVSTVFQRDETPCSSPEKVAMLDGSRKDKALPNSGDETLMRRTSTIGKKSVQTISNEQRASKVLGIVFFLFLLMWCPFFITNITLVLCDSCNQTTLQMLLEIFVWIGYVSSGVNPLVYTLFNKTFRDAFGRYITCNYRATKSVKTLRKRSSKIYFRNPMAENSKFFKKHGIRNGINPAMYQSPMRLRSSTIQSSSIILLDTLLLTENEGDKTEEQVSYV

## Cc1cc([N+](=O)[O-])c(N2CCN(Cc3ccccc3)CC2)cc1N [EGIS-7625]
5-HT2B
  selectivity over 5-HT2A: high selectivity

## C[C@]12CCC(=O)C[C@@H]1CC[C@@H]1[C@@H]2CC[C@]2(C)[C@@H](O)CC[C@@H]12 [Androgen dihydrotestosterone (DHT), dihydrotestosterone]
ALDH1A3 mRNA
  increase in ALDH1A3 mRNA levels: 4 fold

## CC(C)c1cc(-c2ccc(F)c3ccccc23)nc(N)n1 [RS-127,445]
other
  oral bioavailability: orally bioavailable
5-HT2B
  affinity for 5-HT2B: high affinity
5-HT2B; 5-HT2B versus other subtypes
  subtype selectivity: 1000 ×
